Data taken from ChEMBL document CHEMBL1201862, “PubChem BioAssay data set” (2004).
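Assay format: 96-well plates, 48-hour exposure. The concentration for 50% growth inhibition is given as GI50.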 The source made the active and inactive calls. Cut-off read from the data, not from the text of the source: active = GI50 up to about 1.1 µM and inactive = higher.

How the values were obtained:
Assay in all cases: DTP human tumour cell line panel, 48 h
MCF7 = tested on: MCF7
SK-OV-3 = tested on: SK-OV-3
A498 = tested on: A498
KM12 = tested on: KM12
UO-31 = tested on: UO-31
HOP-92 = tested on: HOP-92
SNB-75 = tested on: SNB-75
SF-539 = tested on: SF-539
NCI-H226 = tested on: NCI-H226
NCI-H23 = tested on: NCI-H23
SN12C = tested on: SN12C
MDA-N = tested on: MDA-N
SF-295 = tested on: SF-295
T47D = tested on: T47D
OVCAR-4 = tested on: OVCAR-4
MDA-MB-435 = tested on: MDA-MB-435
TK-10 = tested on: TK-10
MDA-MB-231 = tested on: MDA-MB-231
A549 = tested on: A549
786-0 = tested on: 786-0
COLO 205 = tested on: COLO 205
DU-145 = tested on: DU-145
SK-MEL-5 = tested on: SK-MEL-5
K562 = tested on: K562
HL-60 = tested on: HL-60
LOX IMVI = tested on: LOX IMVI
Malme-3M = tested on: Malme-3M
M14 = tested on: M14
CCRF-CEM = tested on: CCRF-CEM
ACHN = tested on: ACHN
IGROV-1 = tested on: IGROV-1
HCT-116 = tested on: HCT-116
SNB-19 = tested on: SNB-19
HCC 2998 = tested on: HCC 2998
OVCAR-5 = tested on: OVCAR-5
CAKI-1 = tested on: CAKI-1
RXF 393 = tested on: RXF 393
Hs-578T = tested on: Hs-578T
MOLT-4 = tested on: MOLT-4
NCI/ADR-RES = tested on: NCI/ADR-RES
RPMI-8226 = tested on: RPMI-8226
U-251 = tested on: U-251
NCI-H460 = tested on: NCI-H460
HCT-15 = tested on: HCT-15
SR = tested on: SR
OVCAR-3 = tested on: OVCAR-3
EKVX = tested on: EKVX
UACC-257 = tested on: UACC-257
HOP-62 = tested on: HOP-62
OVCAR-8 = tested on: OVCAR-8
SK-MEL-28 = tested on: SK-MEL-28
UACC-62 = tested on: UACC-62
HT-29 = tested on: HT-29
PC-3 = tested on: PC-3
SF-268 = tested on: SF-268
BT-549 = tested on: BT-549
SK-MEL-2 = tested on: SK-MEL-2
SW-620 = tested on: SW-620

## CCCCOP(=O)(OCCCC)C(NS(=O)(=O)c1ccccc1)(C(=O)OCC)C(F)(F)F (stereo unspecified)
MCF7
  GI50: 16.6 µM (inactive)
SK-OV-3
  GI50: 58.5 µM (inactive)
A498
  GI50: 34.5 µM (inactive)
KM12
  GI50: 31 µM (inactive)
UO-31
  GI50: > 100 µM (inactive)
HOP-92
  GI50: 23.8 µM (inactive)
SNB-75
  GI50: 27.6 µM (inactive)
SF-539
  GI50: 19.5 µM (inactive)
NCI-H226
  GI50: 27.6 µM (inactive)
NCI-H23
  GI50: 33.6 µM (inactive)
SN12C
  GI50: 29.1 µM (inactive)
MDA-N
  GI50: 37.2 µM (inactive)
SF-295
  GI50: 25.8 µM (inactive)
T47D
  GI50: > 100 µM (inactive)
OVCAR-4
  GI50: 27.7 µM (inactive)
MDA-MB-435
  GI50: 29.5 µM (inactive)
TK-10
  GI50: 33.9 µM (inactive)
MDA-MB-231
  GI50: 15.3 µM (inactive)
A549
  GI50: 42.8 µM (inactive)
786-0
  GI50: 33.3 µM (inactive)
COLO 205
  GI50: 19.5 µM (inactive)
DU-145
  GI50: 45.3 µM (inactive)
SK-MEL-5
  GI50: 18.1 µM (inactive)
K562
  GI50: 20.5 µM (inactive)
HL-60
  GI50: 19.3 µM (inactive)
LOX IMVI
  GI50: 31.4 µM (inactive)
Malme-3M
  GI50: 23.1 µM (inactive)
M14
  GI50: 25.9 µM (inactive)
CCRF-CEM
  GI50: 27.2 µM (inactive)
ACHN
  GI50: 27.9 µM (inactive)
IGROV-1
  GI50: 23.3 µM (inactive)
HCT-116
  GI50: 27.4 µM (inactive)
SNB-19
  GI50: 29.2 µM (inactive)
HCC 2998
  GI50: > 100 µM (inactive)
OVCAR-5
  GI50: 31 µM (inactive)
CAKI-1
  GI50: 16.4 µM (inactive)
RXF 393
  GI50: 26.7 µM (inactive)
Hs-578T
  GI50: 54.8 µM (inactive)
MOLT-4
  GI50: 20.2 µM (inactive)
NCI/ADR-RES
  GI50: 26 µM (inactive)
RPMI-8226
  GI50: 24.5 µM (inactive)
U-251
  GI50: 34.8 µM (inactive)
NCI-H460
  GI50: 37.6 µM (inactive)
HCT-15
  GI50: 39.7 µM
SR
  GI50: 26.7 µM (inactive)
OVCAR-3
  GI50: 25.1 µM (inactive)
EKVX
  GI50: 30.1 µM (inactive)
UACC-257
  GI50: 31.9 µM (inactive)
HOP-62
  GI50: 22.7 µM (inactive)
OVCAR-8
  GI50: 40.1 µM (inactive)
SK-MEL-28
  GI50: 34.1 µM (inactive)
UACC-62
  GI50: 43.9 µM (inactive)
HT-29
  GI50: 40 µM (inactive)
PC-3
  GI50: 30.1 µM (inactive)
SF-268
  GI50: 43 µM (inactive)

## COc1ccccc1N/C(SCc1ccccc1)=C(/C(Cl)=C(Cl)Cl)[N+](=O)[O-]
MCF7
  GI50: 25.9 µM (inactive)
SK-OV-3
  GI50: 46.5 µM (inactive)
A498
  GI50: 82.8 µM (inactive)
KM12
  GI50: 34 µM (inactive)
UO-31
  GI50: 16.4 µM (inactive)
SNB-75
  GI50: 31.8 µM (inactive)
SF-539
  GI50: 17.4 µM (inactive)
BT-549
  GI50: 15.1 µM (inactive)
NCI-H226
  GI50: 35.5 µM (inactive)
NCI-H23
  GI50: 16.1 µM (inactive)
SN12C
  GI50: 20.3 µM (inactive)
SK-MEL-2
  GI50: 29.6 µM (inactive)
MDA-N
  GI50: 28.9 µM (inactive)
SF-295
  GI50: 25.7 µM (inactive)
T47D
  GI50: 26.1 µM (inactive)
OVCAR-4
  GI50: 22 µM (inactive)
MDA-MB-435
  GI50: 17.3 µM (inactive)
MDA-MB-231
  GI50: 18.7 µM (inactive)
A549
  GI50: 30.4 µM (inactive)
786-0
  GI50: 30.5 µM (inactive)
COLO 205
  GI50: 19.5 µM (inactive)
SW-620
  GI50: 17.8 µM (inactive)
DU-145
  GI50: 26.7 µM (inactive)
K562
  GI50: 19.8 µM (inactive)
Malme-3M
  GI50: 17.4 µM (inactive)
M14
  GI50: 27 µM (inactive)
CCRF-CEM
  GI50: 23.6 µM (inactive)
ACHN
  GI50: 32.1 µM (inactive)
HCT-116
  GI50: 31.3 µM (inactive)
SNB-19
  GI50: 39.4 µM (inactive)
OVCAR-5
  GI50: 33.3 µM (inactive)
CAKI-1
  GI50: 28.8 µM (inactive)
MOLT-4
  GI50: 28.2 µM (inactive)
NCI/ADR-RES
  GI50: 24.2 µM (inactive)
RPMI-8226
  GI50: 26.6 µM (inactive)
U-251
  GI50: 21.1 µM (inactive)
NCI-H460
  GI50: 58.2 µM (inactive)
HCT-15
  GI50: 20.7 µM
OVCAR-3
  GI50: 18.7 µM (inactive)
EKVX
  GI50: 32 µM (inactive)
UACC-257
  GI50: 85.3 µM (inactive)
HOP-62
  GI50: 28.6 µM (inactive)
OVCAR-8
  GI50: 14.4 µM (inactive)
SK-MEL-28
  GI50: 15.1 µM (inactive)
UACC-62
  GI50: 48 µM (inactive)
HT-29
  GI50: 20.3 µM (inactive)
PC-3
  GI50: 31.8 µM (inactive)
SF-268
  GI50: 18.6 µM (inactive)

## CC1CCC(C(=O)O)(C(Br)C(=O)O)CC1 (stereo unspecified)
KM12
  GI50: > 100 µM (inactive)
UO-31
  GI50: > 100 µM (inactive)
HOP-92
  GI50: > 100 µM (inactive)
SNB-75
  GI50: > 100 µM (inactive)
BT-549
  GI50: > 100 µM (inactive)
NCI-H226
  GI50: > 100 µM (inactive)
NCI-H23
  GI50: > 100 µM (inactive)
SN12C
  GI50: > 100 µM (inactive)
SK-MEL-2
  GI50: > 100 µM (inactive)
MDA-N
  GI50: > 100 µM (inactive)
SF-295
  GI50: > 100 µM (inactive)
OVCAR-4
  GI50: > 100 µM (inactive)
MDA-MB-435
  GI50: > 100 µM (inactive)
TK-10
  GI50: > 100 µM (inactive)
MDA-MB-231
  GI50: > 100 µM (inactive)
A549
  GI50: > 100 µM (inactive)
786-0
  GI50: > 100 µM (inactive)
SW-620
  GI50: > 100 µM (inactive)
DU-145
  GI50: > 100 µM (inactive)
SK-MEL-5
  GI50: > 100 µM (inactive)
K562
  GI50: > 100 µM (inactive)
HL-60
  GI50: > 100 µM (inactive)
LOX IMVI
  GI50: > 100 µM (inactive)
M14
  GI50: > 100 µM (inactive)
CCRF-CEM
  GI50: > 100 µM (inactive)
ACHN
  GI50: > 100 µM (inactive)
IGROV-1
  GI50: > 100 µM (inactive)
HCT-116
  GI50: > 100 µM (inactive)
SNB-19
  GI50: > 100 µM (inactive)
OVCAR-5
  GI50: > 100 µM (inactive)
CAKI-1
  GI50: > 100 µM (inactive)
RXF 393
  GI50: > 100 µM (inactive)
MOLT-4
  GI50: > 100 µM (inactive)
NCI/ADR-RES
  GI50: > 100 µM (inactive)
RPMI-8226
  GI50: > 100 µM (inactive)
U-251
  GI50: > 100 µM (inactive)
NCI-H460
  GI50: > 100 µM (inactive)
HCT-15
  GI50: > 100 µM
SR
  GI50: > 100 µM (inactive)
OVCAR-3
  GI50: > 100 µM (inactive)
EKVX
  GI50: > 100 µM (inactive)
UACC-257
  GI50: > 100 µM (inactive)
HOP-62
  GI50: > 100 µM (inactive)
OVCAR-8
  GI50: > 100 µM (inactive)
SK-MEL-28
  GI50: > 100 µM (inactive)
UACC-62
  GI50: > 100 µM (inactive)
HT-29
  GI50: > 100 µM (inactive)
PC-3
  GI50: > 100 µM (inactive)
